In series [1] the test system is Zika virus strain PRVABC59. Nature of the series: Inhibition assay: PRVABC59 ZIKV growth in Vero cells (plaque assay, RT-qPCR). Format: cell-based. How it is done:
(§1) Vero cells were seeded in a 96-well plate with the density of 6000 cells per well. In the initial screening study, the compound (1 μM)-virus (0.1 PFU/cell) mixture in virus growth medium (VGM) [DMEM containing 2% FBS, PS, 20 mM hydroxyethyl piperazine ethane sulfonic acid (HEPES), 1 mM sodium pyruvate, and non-essential amino acids] was added to the cells and incubated for 72 h. In a separate experiment conducted using 12-well plates, the cells were first infected with the virus at 0.1 PFU/cell and following adsorption, the cells were washed twice in PBS and incubated in VGM containing 1 μM concentrations of the drugs. The cell culture media were collected at 72-96 h post-infection and assayed for infectious virus by plaque assay and viral genome copies by quantitative RT-PCR (RT-qPCR). In all subsequent studies, cells in 12-well plates were infected with ZIKV at MOI of 0.1 PFU/cell and following virus adsorption for 1 h at 37° C., VGM containing various concentrations TPB was added to the cells and incubated as above. Clarified supernatants from the infected cells were then used to determine infectious virus or genome copies as above.
(§2) ZIKV viral RNA was detected using RT-qPCR on a C100 Thermal Cycler and the CFX96 Real-Time system (Bio-Rad). Viral RNA (vRNA) was extracted from culture supernatant using a QlAamp Viral RNA Mini kit (Qiagen) and TaqMan Fast Virus 1-Step Master Mix (Life technologies). ZIKV primers and probe (ZIKF: CCGCTGCCCAACACAAG (SEQ ID NO:1); ZIK-R:[…] (SEQ ID NO:2); PCR Probe: ZIK-P: […] (SEQ ID NO:3)) were used for quantitative RT-PCR (RT-qPCR) with the following parameters: 50° C. 30 min, 95° C. 5 min, (95° C. 30 S, 58° C. 1 min)×40 cycles. RNA standard concentrations were determined based on the back calculation with OD values and molecular weights and were generated through serial dilution with R^2>0.95.

Another series deals with Zika virus strain MR766. Nature of the series: Inhibition of MR766 virus growth by TPB. Format: cell-based. Conditions: μM range TPB concentrations tested. On the procedure:
as §1

The subject of series [2] is PRVABC59 virus. Nature of the series: PRVABC59 virus growth in HTR-8 cells in the presence of TPB. The note with it: human trophoblast cell line HTR-8. Format: cell-based, Zika virus.
In series [3] the test system is PRVABC59 virus. Nature of the series: PRVABC59 virus growth in NTERRA cells in the presence of TPB. Format: cell-based, Zika virus. The note with it: human testicular cell line NTERRA.
Series [4] in a line: ATP-based cell viability assay (CellTiter-Glo). The note with it: African green monkey (Cercopithecus aethiops), Vero cells, four days, read-out: CC50 (cellular cytotoxicity 50). On the procedure:
A modified ATP based cytopathic effect (CPE) assay was used for this study based on the CPE method for anti-DENV drug development described elsewhere (see, e.g., Che et al., 2009 Int. J. Clin. Exp. Med. 2:363-373). Vero cells (approximately 30,000 per well) were seeded in a black 96-well plate for 24 hours before the experiment. Cell monolayers were treated with various concentrations of the drugs for 4 days at 37° C. The ATP concentration was measured following manufacturer's recommendations using CellTiter-Glo kit from Promega (Madison, Wis.). Luminescence was recorded using a Veritas Microplate Luminometer at 420 nm. The 50% cytotoxic concentration (CC50) was calculated by a non-linear regression analysis of the dose-response curves.

Series [5] can be described thus: Pharmacokinetic study of TPB in mice (plasma LC-MS/MS). The class given is in vivo, Balb/C mice. Conditions: 10-12 h post-injection, intraperitoneal, 5 mg/kg or 25 mg/kg. On the procedure: For PK studies, groups of Balb/C mice (n=3) were injected intraperitoneally with doses of 5 mg/kg or 25 mg/kg of body weight of TPB in 5% dextrose, plasma was collected from the animals at various times post-injection and stored at −80° C. until analysis by LC-MS/MS for TPB concentrations. Plasma drug levels were subjected to noncompartmental analysis (WinNonlin ver. 6.4 Certera Inc., Princeton, N.J.). The predicted steady-state levels>500 ng/ml were estimated using a twelve h dosing of 25 mg/kg dose of the compound in mice.
TPB was dissolved in DMSO at 1 mg/ml. Working standard solutions were then prepared in 50% methanol in water from the stock solution. Standards (an eight-point calibration curve) and quality controls (at three levels) were prepared by spiking the working standard solutions to blank mouse plasma. One hundred μl aliquot of plasma was mixed with 25 μl of internal standard spiking solution (rilpivirine 1000 ng/ml in 50% acetonitrile in water), 1.5 ml ethyl acetate was added and vortexed vigorously for 15 min. […]
An Agilent 1200 HPLC system (Agilent Technologies, CA, USA) coupled with AB Sciex API 3200 Q Trap with an electrospray ionization source (Applied Biosystems, Foster City, Calif., USA) was used. The mass transitions m/z 541.2→330.2 and 541.2→212.2 for analyte and m/z 367.2→195.2 for internal standard were monitored. […]

A short description of another series: in vivo. The class given is in vivo, Balb/C mice. Conditions: Balb/C, mouse, in vivo, ip, 25 mg/kg. How it is done: as §2
(§3) Balb/C mice were obtained from the Jackson Laboratory (Bar Harbor, Me., USA). After acclimatization for four days, groups of animals (n=6 per group) were injected intraperitoneally with 25 mg/kg body weight dose of TPB diluted in saline or saline alone (no drug control). Following three injections at 12 h intervals, 500 PFU of PRVABC59 virus diluted in PBS was inoculated into each mouse by the subcutaneous (SC) route. Blood was collected by retro-orbital bleeding under anesthesia at days 2, 3, 4, 5, and 6 post-infection. Viral genome copies in the plasma were determined by RT-qPCR.

Series [6] concerns PRVABC59 virus. Nature of the series: in vivo. Format: in vivo, Balb/C mice. How it is done:
as §2, §3

In the next series the test system is Viral E protein. Kind of series: Western blot analysis of E protein expression in virus-infected cells. The class given is cell-based, Zika virus. How it is done:
FIGS. 3A-3C show validation of the antiviral effect of TPB in the μM range. (FIG. 3A) Cells infected with PRVABC59 virus were incubated in the presence of various concentrations of TPB for 96 hours. Culture supernatants were titrated for viral genome copies (FIG. 3A) and infectious virus (FIG. 3B). Data are from three independent experiments with error bars showing±SEM. Statistical analysis was performed using unpaired two-tailed Student's t-test to determine significance of difference. […]. (FIG. 3C) Western blot analysis of E protein expression in virus-infected cells in the presence of various concentrations of TPB. Relative mobility of molecular mass markers are shown on the left.

Another series concerns ZIKV. Conditions: cited from earlier work.
For another series, the system named is DENV. Conditions: cited from earlier work.

Usually IC50 stands for the point on the concentration scale where inhibition reaches its midpoint. What is called CC50 is the concentration giving 50% cytotoxicity. Consider `O=C(NC(=S)Nc1ccc(N2CCN(C(=O)c3cccs3)CC2)cc1)c1sc2ccccc2c1Cl` [Compound 1, 3-chloro-N-[({4-[4-(2-thienylcarbonyl)-1-piperazinyl]phenyl}amino)carbonothioyl]-1-benzothiophene-2-carboxamide], for which, in [1] (0.5 μM TPB, 96 hours), the “Genome copy numbers in supernatants, reduction” value was “over 100 fold” and the “Infectious virus in supernatants, reduction” value is reported as “over 100 fold”. In [1] (1 μM TPB, 96 hours), the Virus growth reduction result is “over 1000 fold”. In series [1] (1 μM compound, Vero cells, 72 hours), the “ZIKV growth inhibition (genome copies in culture supernatants) vs vehicle-only treated cells” value was > 99%. For the same compound, the “Infectious virus yield inhibition” value in [1] (1 μM compound, Vero cells, 96 hours) was “at least 1000 fold”. Besides, the “ZIKV yield inhibition, side-by-side comparison” value in [1] (1 μM, Vero cells, PRVABC59, 96 hours post-infection) was “over 1000 fold”. Moreover, the “Selectivity index 50 (SI50, CC50/IC50)” value in [1] (Vero cells) turned out to be 206. In addition, in [1] (Zika virus, Vero, 96 h, Vero cells, PRVABC59, 96 hours post-infection, read-out: IC50 (infectious virus yield, plaque assay)), the IC50 was determined as 0.094 µM. For the same compound, in the series on Zika virus strain MR766, the “MR766 virus growth inhibition” value is recorded as “sensitive to inhibition”. Further, in the series on PRVABC59 virus [2], the “PRVABC59 virus growth inhibition in HTR-8” value is reported as “inhibited the virus growth”. The “PRVABC59 virus growth inhibition in NTERRA” value in the series on PRVABC59 virus [3] is on record as “inhibited the virus growth”. Further, in series [4], the CC50 at 4 days came out at 19.4 µM. Besides, the TPB plasma level result in series [5] is reported as “approximately 100 ng/ml”. Moreover, the concentration at 2 days post-infection in the series “in vivo” is ~270 ng/mL. Moreover, in the series on PRVABC59 virus [6] (day 4 post-infection, 25 mg/kg intraperitoneal, 500 PFU ZIKV), the “Viral RNA level in plasma, lower than vehicle group” value is on record as ~40 fold. In the series with PRVABC59 virus [6] (immunocompetent mice), the ZIKV viremia entry is listed as “reduced ZIKV viremia significantly”. The “Viral E protein synthesis in infected cells” value in the series on Viral E protein (0.5 μM TPB) is reported as “significantly inhibited”. For the same compound, the “Viral E protein synthesis in infected cells” value in the series with Viral E protein (higher concentrations than 0.5 μM TPB) is listed as “undetectable”.
Turning to `CC[C@H](C)[C@H]1O[C@]2(CC[C@@H]1C)C[C@@H]1C[C@@H](C/C=C(\C)[C@@H](O[C@H]3C[C@H](OC)[C@@H](O[C@H]4C[C@H](OC)[C@@H](O)[C@H](C)O4)[C@H](C)O3)[C@@H](C)/C=C/C=C3\CO[C@@H]4[C@H](O)C(C)=C[C@@H](C(=O)O1)[C@]34O)O2` [IVM, Ivermectin], in the series with ZIKV (10 μM), the “Inhibition of ZIKV infection” value is on record as “strongly”.
With `COc1c(C)c2c(c(O)c1C/C=C(\C)CCC(=O)O)C(=O)OC2` [MPA, Mycophenolic acid], the “Inhibition of infection of cells in vitro by ZIKV” value with ZIKV (1 μM) was “over 99%”. Moreover, the “DENV RNA replication” value in the series on DENV is listed as “inhibit DENV RNA replication”.

The values are drawn from US11135219B2, “Methods of treating or preventing Zika virus infection” (priority 2017, dated 2021).
